6 compounds from ChEMBL document CHEMBL1148363, “New, non-adenosine, high-potency agonists for the human adenosine A2B receptor with an improved selectivity profile compared to the reference agonist N-ethylcarboxamidoadenosine” (J Med Chem, 2004) can be followed below.

The target in experiment [1] is T1, Adenosine receptor A2b (Homo sapiens) (UniProt P29275).
T1 sequence (whole entry): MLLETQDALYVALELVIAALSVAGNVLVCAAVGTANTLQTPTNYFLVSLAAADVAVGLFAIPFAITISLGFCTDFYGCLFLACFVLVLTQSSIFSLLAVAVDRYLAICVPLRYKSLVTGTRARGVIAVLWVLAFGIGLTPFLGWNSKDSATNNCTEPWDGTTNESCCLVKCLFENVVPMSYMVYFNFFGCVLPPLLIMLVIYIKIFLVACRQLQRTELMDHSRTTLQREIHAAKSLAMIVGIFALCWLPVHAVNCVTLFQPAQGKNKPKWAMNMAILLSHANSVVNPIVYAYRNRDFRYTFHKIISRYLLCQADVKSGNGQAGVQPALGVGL
The experiment is described as follows: Stimulation of human adenosine A2B receptor in production of cAMP in CHO cells. It is filed as functional, cell-based.

Experiment [2] deals with T2, Adenosine receptor A3 (Homo sapiens) (UniProt P0DMS8).
T2 sequence (whole entry): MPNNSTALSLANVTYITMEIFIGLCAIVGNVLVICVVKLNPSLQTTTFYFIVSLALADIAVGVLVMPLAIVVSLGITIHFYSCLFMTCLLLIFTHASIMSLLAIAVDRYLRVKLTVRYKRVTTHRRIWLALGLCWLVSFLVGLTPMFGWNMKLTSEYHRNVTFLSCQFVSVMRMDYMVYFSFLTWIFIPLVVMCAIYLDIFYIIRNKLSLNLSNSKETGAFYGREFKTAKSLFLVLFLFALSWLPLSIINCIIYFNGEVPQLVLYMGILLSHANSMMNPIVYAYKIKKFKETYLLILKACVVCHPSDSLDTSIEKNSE
The experiment is described as follows: Inhibition of human adenosine A3 receptor in production of cAMP in CHO cells. The format is functional, cell-based.

Experiment [3] addresses T3, Adenosine receptor A1 (Homo sapiens) (UniProt P30542).
T3 sequence (whole entry): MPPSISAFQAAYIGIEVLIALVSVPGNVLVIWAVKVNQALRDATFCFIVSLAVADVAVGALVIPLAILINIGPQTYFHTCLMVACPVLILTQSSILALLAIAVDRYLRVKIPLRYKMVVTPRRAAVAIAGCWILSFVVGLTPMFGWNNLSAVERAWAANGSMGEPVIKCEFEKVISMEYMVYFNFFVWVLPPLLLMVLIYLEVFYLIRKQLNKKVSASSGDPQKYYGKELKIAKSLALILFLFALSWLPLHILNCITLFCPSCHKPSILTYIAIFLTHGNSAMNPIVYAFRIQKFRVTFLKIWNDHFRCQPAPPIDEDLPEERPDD
The experiment is described as follows: Inhibition of human adenosine A1 receptor in production of cAMP in CHO cells. It is filed as functional, cell-based.

The next experiment concerns CHO. Kind of experiment: cells. Conditions: Cricetulus griseus, read-out: pA2 (converted).
The target of the next experiment is Adenosine receptor A2a (Homo sapiens, UniProt P29274). The experiment is described as follows: biochemical.
The next experiment deals with T4, Adenosine receptor A2b (Homo sapiens, UniProt P29275).
T4 sequence (P29275 whole entry): T1 sequence (whole entry)

A further experiment has as its target T5, Adenosine receptor A3 (Homo sapiens, UniProt P0DMS8).
T5 sequence (P0DMS8 whole entry): T2 sequence (whole entry)
Kind of experiment: Binding affinity against human adenosine A3 receptor expressed on HEK293 cells using [125I]I-AB-MECA. It is filed as cell-based.

For a further experiment, the target named is T6, Adenosine receptor A1 (Homo sapiens, UniProt P30542).
T6 sequence (P30542 whole entry): T3 sequence (whole entry)
Kind of experiment: Binding affinity against human adenosine A1 receptor expressed in CHO cells using [3H]DPCPX. It is filed as cell-based.

pEC50, pKi: −log10 of the molar value.

Sequence of Adenosine receptor A2a (P29274 whole entry): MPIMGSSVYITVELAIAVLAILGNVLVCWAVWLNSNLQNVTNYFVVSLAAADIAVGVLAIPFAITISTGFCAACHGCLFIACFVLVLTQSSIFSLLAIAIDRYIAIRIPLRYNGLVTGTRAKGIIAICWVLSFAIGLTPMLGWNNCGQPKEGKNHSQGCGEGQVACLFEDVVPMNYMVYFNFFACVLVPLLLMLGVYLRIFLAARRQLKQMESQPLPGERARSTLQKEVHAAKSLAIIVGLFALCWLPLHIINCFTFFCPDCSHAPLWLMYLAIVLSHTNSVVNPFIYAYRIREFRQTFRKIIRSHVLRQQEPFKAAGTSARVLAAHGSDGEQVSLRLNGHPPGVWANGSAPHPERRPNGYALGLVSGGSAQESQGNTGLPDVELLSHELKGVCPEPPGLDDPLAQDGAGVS
Description for Adenosine receptor A2a: Binding affinity against human adenosine A2A receptor expressed in HEK293 cells using [3H]ZM-241385

In the case of `N#Cc1c(N)nc(SCc2ncc[nH]2)c(C#N)c1-c1ccccc1`, the Efficacy was found to be 81% in experiment [1], 84% in experiment [2] and 109% in experiment [3].

For `Nc1nc2ccc(Cl)cc2c2nc(-c3ccco3)nn12` [CGS-15943], the Kb in the experiment with CHO is 0.00501 µM.

As a reminder, the pKi is the Ki on a negative log10 scale, so that one unit is a factor of ten. Low values mean a high Ki, high ones a low Ki. A word on the pEC50: it is the EC50 on a negative log10 scale, so that one unit is a factor of ten. A higher pEC50 goes with a small EC50. Turning to `N#Cc1c(N)nc(SCc2ncc[nH]2)c(C#N)c1-c1cccc(O)c1`, the pKi was 7.68 on Adenosine receptor A2a, 6.98 at Adenosine receptor A3 and 8.36 on Adenosine receptor A1. Besides, the Efficacy in experiment [1] amounted to 92%; in experiment [2], 95%; in experiment [3], 112%. The compound also gave a pEC50 on Adenosine receptor A2b of 8.00.

With `N#Cc1c(N)nc(SCc2ncc[nH]2)c(C#N)c1-c1ccc(O)cc1`, the pKi is 7.55 at Adenosine receptor A2a, 6.27 at Adenosine receptor A3 and 8.59 at Adenosine receptor A1. Also, the results for the Efficacy in experiment [1], in experiment [2] and in experiment [3] were 74%, 23% and 103%, respectively. The compound also had a pEC50 on Adenosine receptor A2b of 7.92.

With `COc1ccc(-c2c(C#N)c(N)nc(SCc3ncc[nH]3)c2C#N)cc1`, the results for the negative-log Ki (pKi) on Adenosine receptor A2a and at Adenosine receptor A1 were 6.67 and 8.15, respectively. The Efficacy was 33% in experiment [1], 73% in experiment [2] and 46% in experiment [3]. Moreover, the pEC50 on Adenosine receptor A2b was 8.05.

With `COc1cccc(-c2c(C#N)c(N)nc(SCc3ncc[nH]3)c2C#N)c1`, the values for the pKi on Adenosine receptor A2a, on Adenosine receptor A3 and on Adenosine receptor A1 were 6.98, 7.13 and 8.70, respectively. Also, the Efficacy in experiment [1] is 68%; in experiment [2] it was 39%; in experiment [3], 80%. This compound had a pEC50 on Adenosine receptor A2b of 7.47.
